This is an account of results in patent publication US9499466B2, “Diene-based carboxylate anion and salt thereof, and polymerizable or curable composition thereof” (NIPPON SHOKUBAI CO., LTD., priority 2010, dated 2016).

Data set [1] can be described thus: Solubility test (dissolution method). As to conditions: for Solubility (dissolution method) Water: mixed at 1%, 3%, 5%, 10%, 20% or more. An excerpt: The solubility evaluation by the dissolution method requires complicated operations and a large amount of test sample. Therefore, this test is not suitable for screening. However, the solubility of each compound can be more accurately evaluated.

A short description of data set [2]: Adhesion of cured material to PET film (cross-cut method, JIS K 5600-5-6). As to conditions: UV-cured film on surface-untreated PET film, cross-cut 10×10. As for the experimental part: Each compound shown in Table 11 was formed into a UV-cured film on a PET film in the same manner as in the pencil hardness test, except that the PET film used as a substrate was a surface-untreated polyethylene terephthalate (PET) film (Lumirror L-50T60, produced by Toray Industries, Inc.).
The adhesion of the UV-cured film to the PET film was evaluated based on JIS K 5600-5-6 (cross-cut method). The number of divided segments was 10×10 segments=100 segments. The adhesion was evaluated by the number of the segments which remain without peeling or damage in 100 segments.

Data set [3] in a line: Solubility test (film-forming method). As to conditions: solvent dropped on film on glass plate; Water. The procedure: Each compound was applied on a glass plate and the glass plate was leaned against the wall. Each solvent shown in Table 5 was dropped (5 to 6 drops) on the glass plate with a pasteur pipette. The glass plate was visually observed after the dropped solvent was dried, the surface was optionally rubbed with a spatula, and the solubility (film-forming method) was evaluated according to the criteria shown in Table 4.

Take `C=CCOCC(=C)C(=O)OCC(C)(C)COC(=O)C(=C)COCC=C` [NPG-AMA, neopentyl glycol di(α-allyloxymethyl acrylate), reference compound]: in data set [1], the “Solubility (dissolution method) Acetone” value is “◯◯ (Become uniform and transparent at a compound concentration of 20% or more)”; the “Solubility (dissolution method) Acetonitrile” value was “◯◯ (Become uniform and transparent at a compound concentration of 20% or more)”; the “Solubility (dissolution method) Ethyl acetate” value was “◯◯ (Become uniform and transparent at a compound concentration of 20% or more)”; the “Solubility (dissolution method) Methanol” value is “◯◯ (Become uniform and transparent at a compound concentration of 20% or more)”. Moreover, in data set [1], the “Solubility (dissolution method) THF” value is “◯◯ (Become uniform and transparent at a compound concentration of 20% or more)”; the “Solubility (dissolution method) Toluene” value is “◯◯ (Become uniform and transparent at a compound concentration of 20% or more)”; the “Solubility (dissolution method) Water” value is “X (Not become uniform and transparent even at a compound concentration of 1%)”. In data set [2], the “Adhesion (segments remaining without peeling or damage in 100 segments)” value is 72/100.

Regarding `C=CC(=O)OCC(C)(C)COC(=O)C=C` [NPGDA, reference compound], in data set [1], the “Solubility (dissolution method) Acetone” value was “◯◯ (Become uniform and transparent at a compound concentration of 20% or more)”; the “Solubility (dissolution method) Acetonitrile” value was “◯◯ (Become uniform and transparent at a compound concentration of 20% or more)”; the “Solubility (dissolution method) Ethyl acetate” value was “◯◯ (Become uniform and transparent at a compound concentration of 20% or more)”; the “Solubility (dissolution method) Methanol” value is “◯◯ (Become uniform and transparent at a compound concentration of 20% or more)”. In addition, in data set [1], the “Solubility (dissolution method) THF” value is “◯◯ (Become uniform and transparent at a compound concentration of 20% or more)”; the “Solubility (dissolution method) Toluene” value was “◯◯ (Become uniform and transparent at a compound concentration of 20% or more)”; the “Solubility (dissolution method) Water” value is “X (Not become uniform and transparent even at a compound concentration of 1%)”. In addition, the “Adhesion (segments remaining without peeling or damage in 100 segments)” value in data set [2] is 49/100.

Regarding `C=CC(=O)OCC(CC)(COC(=O)C=C)COC(=O)C=C` [TMPTA, reference compound], in data set [1], the “Solubility (dissolution method) Acetone” value was “◯◯ (Become uniform and transparent at a compound concentration of 20% or more)”; the “Solubility (dissolution method) Acetonitrile” value was “◯◯ (Become uniform and transparent at a compound concentration of 20% or more)”; the “Solubility (dissolution method) Ethyl acetate” value is “◯◯ (Become uniform and transparent at a compound concentration of 20% or more)”; the “Solubility (dissolution method) Methanol” value was “◯◯ (Become uniform and transparent at a compound concentration of 20% or more)”. For the same molecule, in data set [1], the “Solubility (dissolution method) THF” value is “◯◯ (Become uniform and transparent at a compound concentration of 20% or more)”; the “Solubility (dissolution method) Toluene” value is “◯◯ (Become uniform and transparent at a compound concentration of 20% or more)”; the “Solubility (dissolution method) Water” value was “X (Not become uniform and transparent even at a compound concentration of 1%)”. Further, the “Adhesion (segments remaining without peeling or damage in 100 segments)” value in data set [2] was 71/100.

With `C=CCOCC(=C)C(=O)[O-].C=CCOCC(=C)C(=O)[O-].[Zn+2]` [Zn(AMA)2], in data set [2], the “Adhesion (segments remaining without peeling or damage in 100 segments)” value is 100/100. For the same molecule, in data set [3], the “Solubility (film-forming method) Water” value is given as “X-Δ”.

Turning to `C=CCOCC(=C)C(=O)[O-].C=CCOCC(=C)C(=O)[O-].[O]=[Zr+2]` [ZrO(AMA)2], in data set [1], the “Solubility (dissolution method) Acetone” value is “◯◯ (Become uniform and transparent at a compound concentration of 20% or more)”; the “Solubility (dissolution method) Acetonitrile” value is “◯◯ (Become uniform and transparent at a compound concentration of 20% or more)”; the “Solubility (dissolution method) Ethyl acetate” value is “◯◯ (Become uniform and transparent at a compound concentration of 20% or more)”; the “Solubility (dissolution method) Methanol” value is “◯◯ (Become uniform and transparent at a compound concentration of 20% or more)”. For the same molecule, in data set [1], the “Solubility (dissolution method) THF” value is “◯◯ (Become uniform and transparent at a compound concentration of 20% or more)”; the “Solubility (dissolution method) Toluene” value was “◯◯ (Become uniform and transparent at a compound concentration of 20% or more)”; the “Solubility (dissolution method) Water” value was “X (Not become uniform and transparent even at a compound concentration of 1%)”. For the same molecule, the “Adhesion (segments remaining without peeling or damage in 100 segments)” value in data set [2] is 100/100.
